Results taken from PubChem BioAssay AID256 (DTP/NCI, 2004).
Values joined by “and” are separate entries in the source; they are usually repeats but may differ in a detail not shown here. Identical values can stand only once. Toxic doses and inconclusive results are not listed. How the source made its calls: active means survival T/C of 150% or more; inactive means T/C below 125% in these data.

System: CD2F1 mice, L1210 leukemia ip, survival T/C
Experiment: NCI In Vivo Anticancer Drug Screen. Data for tumor model L1210 Leukemia (intraperitoneal) in CD2F1 (CDF1) mice
Settings: endpoint: mean survival time, higher = longer survival
Summary of the method: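 Transplantable tumor in mice; compound-treated vs vehicle-treated groups. Read-out = treated/control ratio of the measured endpoint.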

[1] = dose: 100.0 mg/kg/injection, schedule: Q01DX001 (ip), vehicle: saline with Tween-80
[2] = dose: 100.0 mg/kg/injection, schedule: Q04DX002 (ip), vehicle: saline with Tween-80
[3] = dose: 200.0 mg/kg/injection, schedule: Q04DX002 (ip), vehicle: saline with Tween-80
[4] = dose: 100.0 mg/kg/injection, schedule: Q01DX009 (ip), vehicle: saline with Tween-80
[5] = dose: 200.0 mg/kg/injection, schedule: Q01DX009 (ip), vehicle: saline with Tween-80
[6] = dose: 400.0 mg/kg/injection, schedule: Q01DX009 (ip), vehicle: saline with Tween-80
[7] = dose: 400.0 mg/kg/injection, schedule: Q04DX002 (ip), vehicle: saline with Tween-80
[8] = dose: 100.0 mg/kg/injection, schedule: Q04DX003 (ip), vehicle: saline with Tween-80
[9] = dose: 200.0 mg/kg/injection, schedule: Q04DX003 (ip), vehicle: saline with Tween-80
[10] = dose: 400.0 mg/kg/injection, schedule: Q04DX003 (ip), vehicle: saline with Tween-80

Measured: T/C

Nc1nc(N)c2nc(-c3ccc(Cl)c(Cl)c3)c(N)nc2n1
inactive: dose: 12.5 mg/kg/injection, schedule: Q01DX009 (ip), vehicle: water 97 % of control | dose: 25.0 mg/kg/injection, schedule: Q01DX009 (ip), vehicle: water 97 % of control | dose: 50.0 mg/kg/injection, schedule: Q01DX009 (ip), vehicle: water 108 % of control | dose: 100.0 mg/kg/injection, schedule: Q01DX009 (ip), vehicle: water 93 % of control

NCCCCC1(CCCCN)OCCO1
inactive: dose: 25.0 mg/kg/injection, schedule: Q01DX009 (ip), vehicle: saline 95 % of control | dose: 25.0 mg/kg/injection, schedule: Q04DX002 (ip), vehicle: saline 102 % of control | dose: 50.0 mg/kg/injection, schedule: Q01DX009 (ip), vehicle: saline 102 % of control | dose: 50.0 mg/kg/injection, schedule: Q04DX002 (ip), vehicle: saline 95 % of control | [1] 94 % of control

O=C(CCC(O)c1ccccc1)c1ccccc1 (configuration not stated)
inactive: dose: 50.0 mg/kg/injection, schedule: Q04DX002 (ip), vehicle: saline with Tween-80 97 % of control | [2] 91 % of control | [3] 91 % of control

[Pd+2].[S-]CC[S-]
inactive: dose: 3.13 mg/kg/injection, schedule: Q04DX003 (ip), vehicle: distilled water + Tween-80 101 % of control | dose: 6.25 mg/kg/injection, schedule: Q04DX003 (ip), vehicle: distilled water + Tween-80 102 % of control | dose: 12.5 mg/kg/injection, schedule: Q04DX003 (ip), vehicle: distilled water + Tween-80 101 % of control | dose: 25.0 mg/kg/injection, schedule: Q04DX003 (ip), vehicle: distilled water + Tween-80 104 % of control | dose: 50.0 mg/kg/injection, schedule: Q04DX003 (ip), vehicle: distilled water + Tween-80 95 % of control | dose: 100.0 mg/kg/injection, schedule: Q04DX003 (ip), vehicle: distilled water + Tween-80 95 % of control | dose: 200.0 mg/kg/injection, schedule: Q04DX003 (ip), vehicle: distilled water + Tween-80 95 % of control

CC(=O)OC1C=CC(OC(C)=O)O1 (configuration not stated)
inactive: dose: 0.75 mg/kg/injection, schedule: Q01DX009 (ip), vehicle: saline with Tween-80 103 % of control | dose: 1.5 mg/kg/injection, schedule: Q01DX009 (ip), vehicle: saline with Tween-80 101 % of control | dose: 1.88 mg/kg/injection, schedule: Q04DX003 (ip), vehicle: saline 96 % of control | dose: 3.0 mg/kg/injection, schedule: Q01DX009 (ip), vehicle: saline with Tween-80 95 % of control | dose: 3.75 mg/kg/injection, schedule: Q04DX003 (ip), vehicle: saline 98 % of control | dose: 7.5 mg/kg/injection, schedule: Q01DX001 (ip), vehicle: saline 106 % of control | dose: 7.5 mg/kg/injection, schedule: Q04DX003 (ip), vehicle: saline 102 % of control

O=C(O)C(S)C(S)C(=O)O.[As] (configuration not stated)
inactive: dose: 25.0 mg/kg/injection, schedule: Q04DX003 (ip), vehicle: saline 95 % of control | dose: 50.0 mg/kg/injection, schedule: Q01DX001 (ip), vehicle: saline 89 % of control | dose: 50.0 mg/kg/injection, schedule: Q04DX003 (ip), vehicle: saline 92 % of control | dose: 100.0 mg/kg/injection, schedule: Q01DX001 (ip), vehicle: saline 100 % of control | dose: 100.0 mg/kg/injection, schedule: Q04DX003 (ip), vehicle: saline 100 % of control

CC1=Nc2ccccc2N=C(C)C1
inactive: dose: 50.0 mg/kg/injection, schedule: Q01DX009 (ip), vehicle: acetone 101 % of control | dose: 100.0 mg/kg/injection, schedule: Q01DX009 (ip), vehicle: acetone 98 % of control

COC(=O)C12OCC34C(CC5C(C)=CC(=O)C(O)C5(C)C3C(O)C1O)OC(=O)C(OC(=O)CC(C)C)C24 (configuration not stated)
inactive: dose: 0.12 mg/kg/injection, schedule: Q01DX009 (ip), vehicle: saline + alcohol 101 % of control | dose: 0.13 mg/kg/injection, schedule: Q01DX009 (ip), vehicle: saline + alcohol 102 % of control | dose: 0.25 mg/kg/injection, schedule: Q01DX009 (ip), vehicle: saline + alcohol 100 % of control and 102 % of control | dose: 0.5 mg/kg/injection, schedule: Q01DX009 (ip), vehicle: saline + alcohol 113 % of control and 95 % of control | dose: 1.0 mg/kg/injection, schedule: Q01DX009 (ip), vehicle: saline + alcohol 101 % of control and 105 % of control | dose: 2.0 mg/kg/injection, schedule: Q01DX009 (ip), vehicle: saline + alcohol 97 % of control and 104 % of control | dose: 4.0 mg/kg/injection, schedule: Q01DX009 (ip), vehicle: saline + alcohol 104 % of control and 109 % of control

C=C(NC(C)=O)C(=O)CCC(N)=O
inactive: dose: 5.0 mg/kg/injection, schedule: Q01DX009 (ip), vehicle: saline 101 % of control | dose: 10.0 mg/kg/injection, schedule: Q01DX009 (ip), vehicle: saline 95 % of control | dose: 10.0 mg/kg/injection, schedule: Q04DX003 (ip), vehicle: saline 93 % of control | dose: 20.0 mg/kg/injection, schedule: Q01DX009 (ip), vehicle: saline 98 % of control | dose: 20.0 mg/kg/injection, schedule: Q04DX003 (ip), vehicle: saline 97 % of control

CCOC(=O)C1CN(C(=O)OCC)CC1=O (configuration not stated)
inactive: dose: 50.0 mg/kg/injection, schedule: Q01DX001 (ip), vehicle: other 103 % of control | dose: 100.0 mg/kg/injection, schedule: Q01DX001 (ip), vehicle: other 106 % of control | dose: 200.0 mg/kg/injection, schedule: Q01DX001 (ip), vehicle: other 107 % of control | dose: 400.0 mg/kg/injection, schedule: Q01DX001 (ip), vehicle: other 109 % of control

CC(C)(C(=O)c1ccccc1)C(=O)c1ccccc1
inactive: dose: 50.0 mg/kg/injection, schedule: Q01DX001 (ip), vehicle: saline with Tween-80 104 % of control | [1] 102 % of control | [4] 100 % of control | dose: 200.0 mg/kg/injection, schedule: Q01DX001 (ip), vehicle: saline with Tween-80 100 % of control | [5] 94 % of control | [6] 98 % of control

COc1ccc(COc2ccc([N+](=O)[O-])cc2)cc1
inactive: [2] 87 % of control | [7] 87 % of control

O=N[O-].O=N[O-].[NH-]CC[NH-].[Pt+2]
inactive: dose: 25.0 mg/kg/injection, schedule: Q04DX003 (ip), vehicle: saline with Tween-80 101 % of control | dose: 50.0 mg/kg/injection, schedule: Q04DX003 (ip), vehicle: saline with Tween-80 98 % of control | [8] 93 % of control

Cc1c(C)c2c(c(C)c1O)CC(CC(=O)CO)CO2 (configuration not stated)
inactive: [4] 93 % of control | [5] 100 % of control | [6] 93 % of control

O=C(Nc1ccccc1C(F)(F)F)Nc1cccc2ccccc12
inactive: [8] 95 % of control | [9] 104 % of control | [10] 95 % of control

S=C(CCc1ccc2c(c1)CCCC2)N1CCOCC1
inactive: [8] 98 % of control | [9] 98 % of control | [10] 97 % of control

CCOC(=O)c1c(C)c2c(n1C)CC/C(=C\N1CCOCC1)C2=O
inactive: [2] 93 % of control | [3] 93 % of control | [7] 96 % of control

CC1=C(C)CC([P+](c2ccccc2)(c2ccccc2)c2ccccc2)CC1 (configuration not stated)
inactive: dose: 6.25 mg/kg/injection, schedule: Q01DX001 (ip), vehicle: saline with Tween-80 98 % of control | dose: 12.5 mg/kg/injection, schedule: Q01DX001 (ip), vehicle: saline with Tween-80 90 % of control | dose: 25.0 mg/kg/injection, schedule: Q01DX001 (ip), vehicle: saline with Tween-80 94 % of control

CC(C)(C)NC(=O)CCC(CC(=O)NC(C)(C)C)C1([N+](=O)[O-])CCCCC1 (configuration not stated)
inactive: [4] 92 % of control | [5] 86 % of control
